Earlier results in patent publication US20230172916A1, “COMPOSITION COMPRISING AT LEAST ONE PROTOBERBERINE ALKALOID AND METHOD FOR MANUFACTURING SAME” (ELEONOR, priority 2020, published 2023).
Read-outs that look alike come from different tables or passages of the source.

Key:
[1] = scientific studies report; species not stated
[2] = laboratory rats subjected to experiments

COc1ccc2cc3[n+](cc2c1OC)CCc1cc2c(cc1-3)OCO2 [berberine, 2,3-methylenedioxy-9,10-dimethoxy-protoberberine]
bioavailability [1]: less than 5% | bioavailability [2]: about 0.68%
